Data from patent US20030186997A1, “2,5-Dihydro-pyrazolo[3,4-d]pyrimidin-4-ones with an anticonsulsive action and methods for producing the same” (priority 2000, published 2003).

Experiments:
maximal electroshock [1] = assay: Anticonvulsant action, maximal electroshock (MES), mouse i.p.; assay type: in vivo; conditions: ip, read-out: Action in % of the protected animals
Procedure: (§1) The compounds according to the invention were tested for their anticonvulsant action in vivo after i.p. administration to mice according to the international customary standard (Pharmac. Weekblad, Sc. Ed. 14, 132 (1992) and Antiepileptic Drugs, Third Ed., Raven Press, New York 1989) (Table 1). [table]

s.c. pentetrazole = assay: Anticonvulsant action, s.c. pentetrazole (PTZ), mouse i.p.; assay type: in vivo; conditions: ip, read-out: Action in % of the protected animals
Procedure: as §1

[2] = Octanol/water partition coefficient; assay type: physicochemical
maximal electroshock [3] = assay: Maximal electroshock in the rat, p.o.; assay type: in vivo; conditions: po
Procedure: (§2) This compound is also active in convulsion models using bicuculline and picrotoxin as convulsion-inducing cause. Compound 14 (5-(2-methylbenzyl)-2-methyl-2,5-dihydropyrazolo[3,4-d]pyrimidin-4-one) is likewise strongly anticonvulsant with a large therapeutic breadth (ED50 (rat p.o.) =9 mg/kg, NT50>300 mg/kg). Compound 21 has a similar pharmacological profile (ED50 (rat p.o.) =3 mg/kg, NT50>300 mg/kg).

Neurotoxicity (NT50) = assay type: in vivo; conditions: rat
Procedure: as §2

bicuculline = assay: Convulsion model using bicuculline; assay type: in vivo; conditions: bicuculline as convulsion-inducing cause
Procedure: as §2

picrotoxin = assay type: in vivo
Procedure: as §2

Row | logP [2] | melting point [°C] | SMILES | responders at 100 mg/kg (s.c. pentetrazole) [%] | responders at 100 mg/kg (maximal electroshock [1]) [%] | responders at 300 mg/kg (s.c. pentetrazole) [%] | other results
1 | 0.47 |  | O=c1c2c[nH]nc2ncn1Cc1ccccc1 [5-benzyl-2,5-dihydropyrazolo[3,4-d]pyrimidin-4-one, reference compound] |  |  |  | responders at 30 mg/kg (maximal electroshock [1]): 100%; responders at 30 mg/kg (s.c. pentetrazole; dose 30 mg/kg): 100%
2 |  |  | NC(=O)N1c2ccccc2C=Cc2ccccc21 [Carbamazepine, reference compound] | 0 | 100 |  | 
3 | 0.28 | 214 to 216 | O=c1c2c[nH]nc2ncn1Cc1c(F)cccc1F [Compound 5, 5-(2,6-difluorobenzyl)-2,5-dihydropyrazolo[3,4-d]-pyrimidin-4-one] |  |  |  | responders at 30 mg/kg (maximal electroshock [1]): 100%
4 | 1.36 | 221 to 222 | Cc1ccccc1Cn1cnc2n[nH]cc2c1=O [Compound 6, 5-(2-methylbenzyl)-2,5-dihydropyrazolo[3,4-d]pyrimidin-4-one] |  | 67 | 100 | 
5 | 2.59 | 167 to 168 | O=c1c2cn(Cc3ccccc3Cl)nc2ncn1Cc1ccccc1Cl [Compound 58, 2,5-bis(2-chlorobenzyl)-2,5-dihydropyrazolo[3,4-d]-pyrimidin-4-one] |  |  |  | 
6 | 1.88 | 159 to 161 | CC(C)n1cc2c(=O)n(Cc3c(F)cccc3Cl)cnc2n1 [Compound 43, 5-(2-chloro-6-fluorobenzyl)-2-isopropyl-2,5-dihydropyrazolo[3,4-d]pyrimidin-4-one] |  |  | 33 | responders at 300 mg/kg (maximal electroshock [1]; dose 300 mg/kg): 100%
7 | 1.56 | 169 to 170 | Cn1cc2c(=O)n(Cc3cccc(Cl)c3)cnc2n1 [Compound 19, 5-(3-chlorobenzyl) -2-methyl-2,5-dihydropyrazolo[3,4-d]-pyrimidin-4-one] |  | 100 |  | 
8 | 1.96 | 236 to 237 | O=c1c2c[nH]nc2ncn1Cc1ccc(Cl)cc1Cl [Compound 4, 5-(2,4-dichlorobenzyl)-2,5-dihydropyrazolo[3,4-d]-pyrimidin-4-one] |  | 100 | 40 | 
9 | 1.34 | 246 to 247 | O=c1c2c[nH]nc2ncn1Cc1ccc(Cl)cc1 [Compound 2, 5-(4-chlorobenzyl)-2,5-dihydropyrazolo[3,4-d]pyrimidin-4-one] |  | 33 |  | 
10 | 0.72 | 202 to 204 | Cn1cc2c(=O)n(Cc3ccccc3)cnc2n1 [Compound 13, 5-benzyl-2-methyl-2,5-dihydropyrazolo[3,4-d]pyrimidin-4-one] |  | 100 |  | 
11 | 0.62 | 260 to 261 | O=c1c2c[nH]nc2ncn1Cc1ccc(F)cc1 [Compound 3, 5-(4-fluorobenzyl)-2,5-dihydropyrazolo[3,4-d]pyrimidin-4-one] |  | 33 | 60 | 
12 | 1.67 | 128 to 130 | O=c1c2cn(CC3CCCO3)nc2ncn1Cc1ccccc1Cl (centres unmarked) [Compound 60, 5-(2-chlorobenzyl)-2-tetrahydrofuran-2-ylmethyl-2,5-dihydropyrazolo[3,4-d]pyrimidin-4-one] |  | 67 |  | 
13 |  |  | CCCC(CCC)C(=O)O [Valproate, reference compound] | 30 | 0 |  | 
14 | 1.43 | 185 to 187 | CCn1cc2c(=O)n(Cc3c(F)cccc3F)cnc2n1 [Compound 37, 5-(2,6-difluorobenzyl)-2-ethyl-2,5-dihydropyrazolo[3,4-d]-pyrimidin-4-one] |  | 80 | 20 | 
15 | 0.78 | 168 to 171 | O=c1c2c[nH]nc2ncn1Cc1ccccc1C(F)(F)F [Compound 8, 5-(2-trifluoromethylbenzyl)-2,5-dihydropyrazolo[3,4-d]-pyrimidin-4-one] | 20 | 67 |  | 
16 | 0.92 | 160 to 162 | COc1ccccc1Cn1cnc2nn(C)cc2c1=O [Compound 17, 5-(2-methoxybenzyl)-2-methyl-2,5-dihydropyrazolo[3,4-d]-pyrimidin-4-one] |  | 100 | 100 | 
17 | 0.67 | 226 to 228 | Cn1cc2c(=O)n(Cc3c(F)cccc3F)cnc2n1 [Compound 21, 5-(2,6-difluorobenzyl)-2-methyl-2,5-dihydropyrazolo[3,4-d]pyrimidin-4-one] | 80 |  |  | responders at 30 mg/kg (maximal electroshock [1]): 100%; ED50 (maximal electroshock [3]): 3 mg/kg
18 | 1.76 | 185 to 186 | Cc1ccccc1Cn1cnc2nn(C)cc2c1=O [Compound 14, 5-(2-methylbenzyl)-2-methyl-2,5-dihydropyrazolo[3,4-d]-pyrimidin-4-one] | 80 |  |  | responders at 30 mg/kg (maximal electroshock [1]): 100%; ED50 (maximal electroshock [3]): 9 mg/kg
19 |  | 178 to 179 | CCn1cc2c(=O)n(Cc3ccc(C)cc3)cnc2n1 [Compound 36, 5-(4-methylbenzyl)-2-ethyl-2,5-dihydropyrazolo[3,4-d]-pyrimidin-4-one] |  |  |  | 

Row | SMILES | logP [2] | melting point [°C] | responders at 100 mg/kg (s.c. pentetrazole) [%] | responders at 100 mg/kg (maximal electroshock [1]) [%] | responders at 300 mg/kg (s.c. pentetrazole) [%] | other results
20 | O=c1c2c[nH]nc2ncn1Cc1ccccc1Cl [Compound 1, 5-(2-chlorobenzyl)-2,5-dihydropyrazolo[3,4-d]pyrimidin-4-one] | 1.14 | 186 to 187 | 80 |  |  | responders at 30 mg/kg (maximal electroshock [1]): 100%; ED50 (maximal electroshock [3]): 18 mg/kg; NT50 (neurotoxicity) (Neurotoxicity (NT50)): > 500 mg/kg; activity in convulsion model (bicuculline): active; activity in convulsion model (picrotoxin): active
